In EP4813985A1, “PREPARATION OF QUINAZOLINONE DERIVATIVE AS KINASE INHIBITOR, AND USE THEREOF” (Xizang Haisco Pharmaceutical Co., Ltd., priority 2023, dated 2025):

molecular target: T1, BRAFV600E (Homo sapiens, UniProt P15056, V600E); test: BRAFV600E enzyme activity test (ADP-Glo, MEK1K97R substrate); format: biochemical; settings: Inhibitory activities of compounds on BRAFV600E
T1 construct: purchased ABCAM ab204154
Procedure: BRAFV600E (ABCAM, ab204154) and MEK1K97R (USBio, M2865-06J) proteins were diluted at an appropriate dilution factor using 1×Assay buffer (PH = 7.4 Tris-HCl buffer, supplemented with 10 mM MgCl2) such that the final concentration of BRAFV600E was 10 ng/µL and the final concentration of substrate MEK1K97R was 1 µM. 1 µL of BRAFV600E, 1 µL of compound serial dilution (final concentration starting from 2 µM, 5-fold dilution, 8 concentrations), and 6 µL of Assay buffer were pipetted to a 384-well reaction plate with a capacity of 20 µL. The plate was pre-incubated in a constant temperature incubator at 37°C for 30 min. 1 µL of 200 µM ATP and 1 µM MEK1 K97R were added to the reaction wells corresponding to the compound incubation, and mixed evenly by shaking, and preincubation was performed in a constant temperature incubator at 37°C for 60 min for enzymatic reaction. After the reaction was completed, 5 µL of the above reaction product was pipetted to another 384-well plate, and 5 µL of formulated ADP-Glo™ Reagent (Promega, V9101) was added and mixed evenly by pipetting, and then the plate was placed at room temperature for 40 min. 10 µL Kinase Detection Reagent was added to the 384-well plate and incubated at room temperature for 40 min. Finally, a microplate reader (BMG LRBTECH) was used and Luminescence module was selected to detect the LUM fluorescence value of each well (the gain value was fixed at 3600), and the formula Inhibition rate% = (1−(LUM Compound−LUM Background)/(LUM Solvent−LUM Background))∗100% [formula] was used to calculate the inhibition rate of the compound on BRAFV600E. The Graphpad software log(inhibitor) vs. response -- Variable slope (four parameters) equation was used to perform fitting analysis and calculate the IC50value of the sample.

T1 sequence (P15056 416-766 V600E limits assumed): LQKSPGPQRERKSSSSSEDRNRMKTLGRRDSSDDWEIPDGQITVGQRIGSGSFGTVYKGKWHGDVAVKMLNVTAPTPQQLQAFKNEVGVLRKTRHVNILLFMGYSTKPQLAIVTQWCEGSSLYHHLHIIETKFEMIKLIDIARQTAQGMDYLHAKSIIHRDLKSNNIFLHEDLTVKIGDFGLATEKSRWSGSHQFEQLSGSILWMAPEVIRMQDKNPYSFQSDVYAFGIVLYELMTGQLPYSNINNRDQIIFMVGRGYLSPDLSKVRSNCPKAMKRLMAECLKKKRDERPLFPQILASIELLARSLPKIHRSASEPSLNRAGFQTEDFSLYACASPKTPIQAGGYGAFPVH

SMILES | IC50 [nM]
CC=C1CN(S(=O)(=O)Nc2ccc(F)c(Oc3ccc4ncn(CCF)c(=O)c4c3)c2C#N)C1 [Compound 14] | ≤ 10
CC(F)=C1CN(S(=O)(=O)Nc2ccc(F)c(Oc3ccc4ncn(CC(F)F)c(=O)c4c3)c2C#N)C1 [Compound 24] | ≤ 10
C=C1CN(S(=O)(=O)Nc2ccc(F)c(Oc3ccc4ncn(CC(F)F)c(=O)c4c3)c2C#N)C1 [Compound 3] | ≤ 10
CC=C1CN(S(=O)(=O)Nc2ccc(F)c(Oc3ccc4ncn(CC(F)F)c(=O)c4c3)c2C#N)C1 [Compound 7] | ≤ 10

test system: A375 cells; test: A375 cell proliferation inhibition test; format: cell-based; settings: Homo sapiens, A-375; A375 cells, 72 h, values in text; read-out: IC50
Procedure: A375 cells (ATCC, CRL-1619) were cultured in DMEM complete medium (+10% FBS) in a CO2 incubator at 37°C for 48 h. The cells were trypsinised and counted, and then the density was adjusted to 1.67 × 10^4 cells/mL. 90 µL (1500 cells) of cells were inoculated into each well of a 96-well transparent bottom plate, and the plate was transferred to a CO2 incubator and the cells were cultured at 37°C overnight. After the cells were incubated overnight, 10 µL of the diluted compound (final concentration starting from 10 µM, 3-fold dilution, 11 concentrations) was added to each well using a multi-channel pipette. The […] control was a serum-free medium containing DMSO. After mixing evenly, the cells were placed in a CO2 incubator at 37°C for 72 h. After the incubation, the CellCounting-Lite®2.0 kit detection solution (Vazyme, DD1101-03) was taken out and returned to room temperature. 100 µL of CellCounting-Lite2.0 detection solution was added to each well, the plate was sealed with a sealing film, and the plate was placed on a shaker for shaking for 15 min (the whole process should be kept away from light). The Luminescence module of the microplate reader (BMG LRBTECH) was used to detect the fluorescence signal value LUM of each well. The formula Inhibition rate% = ((LUM Solvent−LUM Compound)/(LUM Solvent))∗100% [formula] was used to calculate the inhibition rate of the compound. The Graphpad software log(inhibitor) vs. response -- Variable slope (four parameters) equation was used to perform fitting analysis and calculate the IC50value of the sample. The ordinate of the data is the percentage of inhibition rate, and the abscissa is the logarithm of the sample concentration (Log10).

SMILES | IC50 [nM]
CC=C1CN(S(=O)(=O)Nc2ccc(F)c(Oc3ccc4ncn(CCF)c(=O)c4c3)c2C#N)C1 [Compound 14] | 1.44
CC(F)=C1CN(S(=O)(=O)Nc2ccc(F)c(Oc3ccc4ncn(CC(F)F)c(=O)c4c3)c2C#N)C1 [Compound 24] | 2.16
C=C1CN(S(=O)(=O)Nc2ccc(F)c(Oc3ccc4ncn(CC(F)F)c(=O)c4c3)c2C#N)C1 [Compound 3] | 0.14
CC=C1CN(S(=O)(=O)Nc2ccc(F)c(Oc3ccc4ncn(CC(F)F)c(=O)c4c3)c2C#N)C1 [Compound 7] | 0.66

same assay, conditions: Homo sapiens, A-375; Inhibitory activities of compounds on A375 cells, 72 h; read-out: IC50/nM

SMILES | IC50 [nM]
CC=C1CN(S(=O)(=O)Nc2ccc(F)c(Oc3ccc4ncn(CCF)c(=O)c4c3)c2C#N)C1 [Compound 14] | ≤ 10
CC(F)=C1CN(S(=O)(=O)Nc2ccc(F)c(Oc3ccc4ncn(CC(F)F)c(=O)c4c3)c2C#N)C1 [Compound 24] | ≤ 10
C=C1CN(S(=O)(=O)Nc2ccc(F)c(Oc3ccc4ncn(CC(F)F)c(=O)c4c3)c2C#N)C1 [Compound 3] | ≤ 10
CC=C1CN(S(=O)(=O)Nc2ccc(F)c(Oc3ccc4ncn(CC(F)F)c(=O)c4c3)c2C#N)C1 [Compound 7] | ≤ 10

test system: not listed separately; test: Pharmacokinetic test in mice; format: in vivo, ICR mice; settings: mouse, iv, plasma, i.v. (2.5 mg/kg)
Procedure: 3.1 Experimental animals: Male ICR mice, 20-25 g, 6 mice/compound, purchased from Chengdu Dossy Experimental Animals Co., Ltd.
3.2 Experimental design: On the day of the experiment, the ICR mice were randomly grouped according to their body weights. The animals were fasted with water available for 12-14 h one day before the administration, and were fed 4 h after the administration. Table 3.1 Administration information
vehicle for intravenous administration: 5% DMA + 5% Solutol + 90% Saline; vehicle for intragastric administration: 0.5% MC
Before and after administration, 0.06 mL of blood was taken from the orbit under isoflurane anaesthesia and placed in an EDTAK2 centrifuge tube. The tube was centrifuged at 5000 rpm at 4°C for 10 min, and plasma was collected. The blood sampling time points for both the intravenous administration group and intragastric administration group were 0 min, 5 min, 15 min, 30 min, 1 h, 2 h, 4 h, 7 h, 24 h, and 48 h. Before analysis and detection, all samples were stored at -80°C, and the samples were quantitatively analysed by LC-MS/MS. Table 3.2 Pharmacokinetic parameters of test compounds in plasma of mice

SMILES | AUC(0-t) [µg·h/mL] | clearance [mL/min/kg] | half-life [h]
CC=C1CN(S(=O)(=O)Nc2ccc(F)c(Oc3ccc4ncn(CCF)c(=O)c4c3)c2C#N)C1 [Compound 14] | 268 | 0.154 | 9.27
CC(F)=C1CN(S(=O)(=O)Nc2ccc(F)c(Oc3ccc4ncn(CC(F)F)c(=O)c4c3)c2C#N)C1 [Compound 24] | 91.8 | 0.462 | 8.1
C=C1CN(S(=O)(=O)Nc2ccc(F)c(Oc3ccc4ncn(CC(F)F)c(=O)c4c3)c2C#N)C1 [Compound 3] | 225 | 0.186 | 8.68
CC=C1CN(S(=O)(=O)Nc2ccc(F)c(Oc3ccc4ncn(CC(F)F)c(=O)c4c3)c2C#N)C1 [Compound 7] | 228 | 0.171 | 12.8

same assay, conditions: mouse, iv, plasma, i.v. (2.5 mg/kg), read-out: Vdss

SMILES | Vd [L/kg]
CC=C1CN(S(=O)(=O)Nc2ccc(F)c(Oc3ccc4ncn(CCF)c(=O)c4c3)c2C#N)C1 [Compound 14] | 0.098
CC(F)=C1CN(S(=O)(=O)Nc2ccc(F)c(Oc3ccc4ncn(CC(F)F)c(=O)c4c3)c2C#N)C1 [Compound 24] | 0.237
C=C1CN(S(=O)(=O)Nc2ccc(F)c(Oc3ccc4ncn(CC(F)F)c(=O)c4c3)c2C#N)C1 [Compound 3] | 0.112
CC=C1CN(S(=O)(=O)Nc2ccc(F)c(Oc3ccc4ncn(CC(F)F)c(=O)c4c3)c2C#N)C1 [Compound 7] | 0.156

same assay, conditions: mouse, plasma, po, i.g. (10 mg/kg)

SMILES | bioavailability [%]
CC=C1CN(S(=O)(=O)Nc2ccc(F)c(Oc3ccc4ncn(CCF)c(=O)c4c3)c2C#N)C1 [Compound 14] | 85.1
CC(F)=C1CN(S(=O)(=O)Nc2ccc(F)c(Oc3ccc4ncn(CC(F)F)c(=O)c4c3)c2C#N)C1 [Compound 24] | > 98
C=C1CN(S(=O)(=O)Nc2ccc(F)c(Oc3ccc4ncn(CC(F)F)c(=O)c4c3)c2C#N)C1 [Compound 3] | 84.5
CC=C1CN(S(=O)(=O)Nc2ccc(F)c(Oc3ccc4ncn(CC(F)F)c(=O)c4c3)c2C#N)C1 [Compound 7] | 90.6

same assay, conditions: mouse, po, plasma, i.g. (10 mg/kg)

SMILES | AUC(0-t) [µg·h/mL] | half-life [h]
CC=C1CN(S(=O)(=O)Nc2ccc(F)c(Oc3ccc4ncn(CCF)c(=O)c4c3)c2C#N)C1 [Compound 14] | 912 | 9
CC(F)=C1CN(S(=O)(=O)Nc2ccc(F)c(Oc3ccc4ncn(CC(F)F)c(=O)c4c3)c2C#N)C1 [Compound 24] | 492 | 9.83
C=C1CN(S(=O)(=O)Nc2ccc(F)c(Oc3ccc4ncn(CC(F)F)c(=O)c4c3)c2C#N)C1 [Compound 3] | 762 | 10.3
CC=C1CN(S(=O)(=O)Nc2ccc(F)c(Oc3ccc4ncn(CC(F)F)c(=O)c4c3)c2C#N)C1 [Compound 7] | 825 | 10.7

test system: not listed separately; test: Pharmacokinetic test in rats; format: in vivo, SD rats; settings: rat, iv, plasma, i.v. (2.5 mg/kg)
Procedure: 5.1 Experimental animals: Male SD rats, about 220 g, 6-8 weeks old, 6 rats/compound, purchased from Chengdu Dossy Experimental Animals Co., Ltd.
5.2 Experimental design: On the day of the experiment, the SD rats were randomly grouped according to their body weights. The animals were fasted with water available for 12-14 h one day before the administration, and were fed 4 h after the administration.
5.3 Test compounds: compounds in the examples and control compounds. Table 5.1 Administration information
Before and after administration, 0.1 ml of blood was taken from the orbit under isoflurane anaesthesia and placed in an EDTAK2 centrifuge tube. The tube was centrifuged at 5000 rpm at 4°C for 10 min, and plasma was collected. Blood sampling time points for the intravenous administration group: 0 min, 5 min, 15 min, 30 min, 1 h, 2 h, 4 h, 6 h, 8 h, 24 h, and 48 h; blood sampling time points for the intragastric administration group: 0 min, 5 min, 15 min, 30 min, 1 h, 2 h, 4 h, 6 h, 8 h, 24 h, and 48 h. Before analysis and detection, all samples were stored at -80°C, and the samples were quantitatively analysed by LC-MS/MS. Table 5.2 Pharmacokinetic parameters of test compounds in plasma of rats

SMILES | AUC(0-t) [µg·h/mL] | clearance [mL/min/kg] | half-life [h]
C=C1CN(S(=O)(=O)Nc2ccc(F)c(Oc3ccc4ncn(CC(F)F)c(=O)c4c3)c2C#N)C1 [Compound 3] | 41 | 0.091 | 19.1
CC=C1CN(S(=O)(=O)Nc2ccc(F)c(Oc3ccc4ncn(CC(F)F)c(=O)c4c3)c2C#N)C1 [Compound 7] | 376 | 0.109 | 14.2

same assay, conditions: rat, iv, plasma, i.v. (2.5 mg/kg), read-out: Vdss

SMILES | Vd [L/kg]
C=C1CN(S(=O)(=O)Nc2ccc(F)c(Oc3ccc4ncn(CC(F)F)c(=O)c4c3)c2C#N)C1 [Compound 3] | 0.126
CC=C1CN(S(=O)(=O)Nc2ccc(F)c(Oc3ccc4ncn(CC(F)F)c(=O)c4c3)c2C#N)C1 [Compound 7] | 0.096

same assay, conditions: rat, plasma, po, i.g. (10 mg/kg)

SMILES | bioavailability [%]
C=C1CN(S(=O)(=O)Nc2ccc(F)c(Oc3ccc4ncn(CC(F)F)c(=O)c4c3)c2C#N)C1 [Compound 3] | 62.8
CC=C1CN(S(=O)(=O)Nc2ccc(F)c(Oc3ccc4ncn(CC(F)F)c(=O)c4c3)c2C#N)C1 [Compound 7] | 81.3

same assay, conditions: rat, po, plasma, i.g. (10 mg/kg)

SMILES | AUC(0-t) [µg·h/mL] | half-life [h]
C=C1CN(S(=O)(=O)Nc2ccc(F)c(Oc3ccc4ncn(CC(F)F)c(=O)c4c3)c2C#N)C1 [Compound 3] | 1030 | 13.9
CC=C1CN(S(=O)(=O)Nc2ccc(F)c(Oc3ccc4ncn(CC(F)F)c(=O)c4c3)c2C#N)C1 [Compound 7] | 1220 | 13.5

test system: not listed separately; test: Liver microsomal stability test (monkey liver microsomal model); format: in vitro ADME; settings: monkey liver microsomes, 1 µM test compound, NADPH, 37°C
Procedure: In this experiment, liver microsomes of five species, including human, monkey, dog, rat and mouse, were used as in vitro models to evaluate the metabolic stability of the test compound.
At 37°C, 1 µM of the test compound was co-incubated with microsomal protein and coenzyme NADPH. At given time points of the reaction (5 min, 10 min, 20 min, 30 min, and 60 min), the reaction was terminated by adding ice-cold acetonitrile containing an internal standard. The LC-MS/MS method was used to measure the concentration of the test compound in the sample. T1/2 was calculated using the ln value of the percentage of drug remaining in the incubation system and the incubation time. In addition, the intrinsic clearance in liver microsomes CLint(mic) and the intrinsic clearance in liver CLint(Liver) were further calculated. Table 6 Results of test compounds in monkey liver microsomal model

SMILES | Percentage of drug remaining after 60 min of incubation [%]
C=C1CN(S(=O)(=O)Nc2ccc(F)c(Oc3ccc4ncn(CC(F)F)c(=O)c4c3)c2C#N)C1 [Compound 3] | 56.1
CC=C1CN(S(=O)(=O)Nc2ccc(F)c(Oc3ccc4ncn(CC(F)F)c(=O)c4c3)c2C#N)C1 [Compound 7] | 48.2

test system: not listed separately; test: Pharmacokinetic test in mice; format: in vivo, ICR mice; settings: i.g. (10 mg/kg), relative to Control compound 1

SMILES | Fold change in brain-blood ratio relative to control compound
CC=C1CN(S(=O)(=O)Nc2ccc(F)c(Oc3ccc4ncn(CCF)c(=O)c4c3)c2C#N)C1 [Compound 14] | 3.5
CC(F)=C1CN(S(=O)(=O)Nc2ccc(F)c(Oc3ccc4ncn(CC(F)F)c(=O)c4c3)c2C#N)C1 [Compound 24] | 8.1
C=C1CN(S(=O)(=O)Nc2ccc(F)c(Oc3ccc4ncn(CC(F)F)c(=O)c4c3)c2C#N)C1 [Compound 3] | 10.8
CC=C1CN(S(=O)(=O)Nc2ccc(F)c(Oc3ccc4ncn(CC(F)F)c(=O)c4c3)c2C#N)C1 [Compound 7] | 10.5
